Reference: paper PMC7932537, “Quantitative profiling of protease specificity” (PLoS Computational Biology, 2021)

Experiments:
MMP-2 [1] = experiment: Substrate phage display with NGS: relative probability (RP) of P3-P1' tetramer clusters; type: biochemical, human; details: MMP2;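 further: ratio of tetramer probability after protease selection to that in naive phage library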
MMP-2 [2] = target: T1, MMP-2 (Homo sapiens, UniProt P08253); experiment: K(obs) of individual phage substrates (set of 1369); type: biochemical; details: MMP2
T1 sequence (P08253 110-660): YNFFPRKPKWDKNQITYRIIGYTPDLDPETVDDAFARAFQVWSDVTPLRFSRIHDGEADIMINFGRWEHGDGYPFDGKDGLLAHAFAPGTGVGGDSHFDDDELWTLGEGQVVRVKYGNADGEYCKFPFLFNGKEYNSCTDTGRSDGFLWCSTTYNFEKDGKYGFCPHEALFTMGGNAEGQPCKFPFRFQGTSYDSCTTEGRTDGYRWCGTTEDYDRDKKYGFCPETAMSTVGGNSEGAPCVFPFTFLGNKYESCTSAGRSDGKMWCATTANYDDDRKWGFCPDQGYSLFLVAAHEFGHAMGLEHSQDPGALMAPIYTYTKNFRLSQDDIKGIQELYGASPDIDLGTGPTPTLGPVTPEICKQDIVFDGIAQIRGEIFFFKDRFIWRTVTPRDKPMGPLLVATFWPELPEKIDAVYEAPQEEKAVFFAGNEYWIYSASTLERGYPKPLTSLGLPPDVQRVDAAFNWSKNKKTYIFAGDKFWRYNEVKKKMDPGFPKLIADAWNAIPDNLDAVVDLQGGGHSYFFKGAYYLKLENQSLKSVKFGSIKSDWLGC

MMP-9 = MMP-9 (Homo sapiens, UniProt P14780); experiment: as above; type: biochemical; details: MMP9
Sequence of MMP-9 (P14780 94-707): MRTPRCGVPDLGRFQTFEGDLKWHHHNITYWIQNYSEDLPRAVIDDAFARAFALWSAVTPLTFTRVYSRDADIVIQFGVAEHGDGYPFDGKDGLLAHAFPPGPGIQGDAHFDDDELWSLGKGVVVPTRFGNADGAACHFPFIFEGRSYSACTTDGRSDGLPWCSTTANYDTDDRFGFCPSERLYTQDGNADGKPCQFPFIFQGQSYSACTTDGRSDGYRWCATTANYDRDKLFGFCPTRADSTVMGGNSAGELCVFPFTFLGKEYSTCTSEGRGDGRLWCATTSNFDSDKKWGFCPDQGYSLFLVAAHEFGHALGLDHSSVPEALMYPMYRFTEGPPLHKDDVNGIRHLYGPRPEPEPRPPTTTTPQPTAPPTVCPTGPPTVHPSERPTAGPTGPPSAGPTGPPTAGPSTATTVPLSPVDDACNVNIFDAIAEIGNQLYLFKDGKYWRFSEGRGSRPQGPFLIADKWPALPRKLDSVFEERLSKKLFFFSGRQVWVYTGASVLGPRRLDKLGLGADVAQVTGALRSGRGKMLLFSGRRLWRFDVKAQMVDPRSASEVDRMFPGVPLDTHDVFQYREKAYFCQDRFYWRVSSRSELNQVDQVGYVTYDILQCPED

[3] = RP of the P3-P1' tetramer contained in the substrate
[4] = individual phage substrate of the set of 1369 peptides, cleavage position marked by '-'
[5] = individual phage substrate of the set of 1369 peptides, dash in the sequence marks the cleavage position
[6] = RP of the P3-P1' tetramer contained in the substrate (substrate phage display with NGS)
[7] = individual phage substrates, set of 1369 peptides, cleavage position marked by hyphen in sequence
[8] = individual phage substrates, set of 1369 peptides, hyphen in sequence marks cleavage position

Substance	relative probability (RP) (MMP-2 [1]; [3])	Kobs (MMP-2 [2]; [4]) [M⁻¹ s⁻¹]	Kobs (MMP-9; [5]) [M⁻¹ s⁻¹]	relative probability (RP) (MMP-2 [1]; [6])	Kobs (MMP-2 [2]; [7]) [M⁻¹ s⁻¹]	Kobs (MMP-9; [8]) [M⁻¹ s⁻¹]
SGVRH-LINTA	25.4239	1763.55	8321.48			
SGVRH-VRATA	9.5401	3850.82	12792.1			
SGVRW-YSNTA	17.3102	874.197	5667.28			
SGVRY-LYGTA				18.3724	3637.04	8941.32
SGVSF-LQQTA	5.918	1373.05	0			
SGVWG-IYVTA				3.01	484.315	2761.81
SGVWN-LIMTA	14.4124	619.843	6688.74			
SGVYS-LIKTA				16.838	27.918	836.403
SGVYW-LRSTA	16.4375	9740.44	12792.1			
SGWAP-LLRTA				23.9342	142.481	142.481
SGWSG-MMATA				18.3143	1112.44	171.876
SGWSN-LMRTA				17.9326	0	0
SGYAN-MRRTA				22.6837	2097.28	762.325
SGYAS-MVATA				24.1553	5667.28	0
SGYMS-LIATA				0.07249	386.839	0
SGYRS-LTLTA				1.506	292.668	27.918
SGYRS-LYSTA				1.506	2280.5	2476.66
SGYYG-LRATA				0.142	874.197	12792.1
SIAFA-LTASG				17.8812	12792.1	12792.1
SIHLA-LTASG				11.3603	1561.44	171.876
SIVRM-LTASG				15.9125	7386.83	4335.13
SKMAH-LTASG	29.5006	2409.72	0			
SKPNF-LTASG	15.743	5889.62	3741.87			
SLFLH-MTASG				0.2069	142.481	0
SLNRA-LTASG	16.7485	12792.1	4470.66			
SLPRP-LTASG				34.3303	6396.07	10866.7
SLPTS-LTASG				28.926	8321.48	2097.28
